Results reported in article PMC9516332 (Frontiers in Oncology, 2022).
pIC50: −log10 of the molar value.

What was measured:
[1] = tested on: 134 cancer cell lines
[2] = target: panel of 255 wild-type kinases (Homo sapiens, UniProt P06241); assay: Kinase panel profiling at 1 µmol/L (MSA or IMAP), percentage inhibition; assay type: biochemical; details: kinase FYN [isoform a]; 1 µmol/L single concentration; read-out: %-inhibition at 1 µmol/L, FYN [isoform a]
[3] = target: panel of 255 wild-type kinases (Homo sapiens, UniProt Q9H2X6); assay: as above; assay type: biochemical; details: kinase HIPK2; 1 µmol/L single concentration; read-out: %-inhibition at 1 µmol/L, HIPK2
[4] = target: panel of 255 wild-type kinases (Homo sapiens, UniProt Q9H0K1); assay: as above; assay type: biochemical; details: kinase QIK; 1 µmol/L single concentration; read-out: %-inhibition at 1 µmol/L, QIK
[5] = target: panel of 255 wild-type kinases (Homo sapiens, UniProt Q9Y5S2); assay: as above; assay type: biochemical; details: MRCKβ; 1 µmol/L single concentration; read-out: %-inhibition, MRCKβ
[6] = target: panel of 255 wild-type kinases (Homo sapiens, UniProt Q13153); assay: as above; assay type: biochemical; details: PAK1; 1 µmol/L single concentration; read-out: %-inhibition, PAK1
[7] = target: panel of 255 wild-type kinases (Homo sapiens, UniProt Q9H4A3); assay: as above; assay type: biochemical; details: kinase WNK1; 1 µmol/L single concentration; read-out: %-inhibition at 1 µmol/L, WNK1
[8] = target: panel of 255 wild-type kinases (Homo sapiens, UniProt P54756); assay: as above; assay type: biochemical; details: kinase EPHA5; 1 µmol/L single concentration; read-out: %-inhibition at 1 µmol/L, EPHA5
[9] = target: panel of 255 wild-type kinases (Homo sapiens, UniProt P24723); assay: as above; assay type: biochemical; details: kinase PKCη; 1 µmol/L single concentration; read-out: %-inhibition at 1 µmol/L, PKCη
[10] = target: panel of 255 wild-type kinases (Homo sapiens, UniProt Q15759); assay: as above; assay type: biochemical; details: p38β; 1 µmol/L single concentration; read-out: %-inhibition, p38β
[11] = target: T1, panel of 255 wild-type kinases (Homo sapiens, UniProt Q8NE63); assay: as above; assay type: biochemical; details: kinase HIPK4; 1 µmol/L single concentration; read-out: %-inhibition at 1 µmol/L, HIPK4
T1 sequence (Q8NE63 1-616): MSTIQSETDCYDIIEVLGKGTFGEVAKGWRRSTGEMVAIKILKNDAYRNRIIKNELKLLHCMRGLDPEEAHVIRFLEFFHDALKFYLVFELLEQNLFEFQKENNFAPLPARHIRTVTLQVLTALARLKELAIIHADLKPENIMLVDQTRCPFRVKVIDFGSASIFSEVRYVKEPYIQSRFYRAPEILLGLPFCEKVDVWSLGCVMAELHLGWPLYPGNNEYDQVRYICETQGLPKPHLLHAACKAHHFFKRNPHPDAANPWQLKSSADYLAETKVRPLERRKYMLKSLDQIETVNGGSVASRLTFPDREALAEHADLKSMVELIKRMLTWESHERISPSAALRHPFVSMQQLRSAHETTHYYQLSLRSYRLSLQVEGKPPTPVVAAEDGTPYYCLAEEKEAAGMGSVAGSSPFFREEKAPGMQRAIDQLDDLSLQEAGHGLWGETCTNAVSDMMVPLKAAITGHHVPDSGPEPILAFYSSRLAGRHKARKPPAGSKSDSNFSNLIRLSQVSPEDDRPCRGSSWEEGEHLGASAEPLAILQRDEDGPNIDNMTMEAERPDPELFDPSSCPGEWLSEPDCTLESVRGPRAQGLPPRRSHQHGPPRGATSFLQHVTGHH

[12] = target: T2, panel of 255 wild-type kinases (Homo sapiens, UniProt Q12851); assay: as above; assay type: biochemical; details: kinase MAP4K2; 1 µmol/L single concentration; read-out: %-inhibition at 1 µmol/L, MAP4K2
T2 sequence (Q12851 1-820): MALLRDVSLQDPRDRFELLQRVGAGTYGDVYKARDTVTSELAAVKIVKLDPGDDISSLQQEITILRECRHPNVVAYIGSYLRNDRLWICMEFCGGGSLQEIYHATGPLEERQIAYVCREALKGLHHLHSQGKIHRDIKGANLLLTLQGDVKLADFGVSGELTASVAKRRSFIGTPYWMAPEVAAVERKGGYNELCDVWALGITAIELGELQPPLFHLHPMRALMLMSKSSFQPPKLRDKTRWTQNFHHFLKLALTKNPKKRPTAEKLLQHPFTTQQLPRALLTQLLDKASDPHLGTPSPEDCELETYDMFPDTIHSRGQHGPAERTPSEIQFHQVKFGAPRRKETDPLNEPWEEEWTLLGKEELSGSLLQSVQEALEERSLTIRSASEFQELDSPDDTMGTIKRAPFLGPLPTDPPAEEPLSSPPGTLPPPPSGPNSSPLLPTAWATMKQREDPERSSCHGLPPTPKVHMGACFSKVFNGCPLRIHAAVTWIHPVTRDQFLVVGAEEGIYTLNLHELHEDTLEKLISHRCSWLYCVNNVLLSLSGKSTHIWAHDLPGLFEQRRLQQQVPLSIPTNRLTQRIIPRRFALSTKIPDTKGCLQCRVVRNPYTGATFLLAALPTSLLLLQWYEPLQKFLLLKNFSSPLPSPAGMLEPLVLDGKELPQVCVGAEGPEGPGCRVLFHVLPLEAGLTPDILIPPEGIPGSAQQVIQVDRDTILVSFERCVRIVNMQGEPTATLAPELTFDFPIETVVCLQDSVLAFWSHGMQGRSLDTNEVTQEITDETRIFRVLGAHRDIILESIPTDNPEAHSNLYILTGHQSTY

[13] = target: panel of 255 wild-type kinases (Homo sapiens, UniProt P68400); assay: as above; assay type: biochemical; details: kinase CK2α1/β; 1 µmol/L single concentration; read-out: %-inhibition at 1 µmol/L, CK2α1/β

COC(=O)N[C@@H](C)CNc1nccc(-c2cn(C(C)C)nc2-c2cc(Cl)cc(NS(C)(=O)=O)c2F)n1 [encorafenib]
pIC50 [1]: 6.23
inhibition at 1 µM [2]: 6%
inhibition at 1 µM [3]: 0.238%
inhibition at 1 µM [4]: -0.749%
inhibition at 1 µM [5]: 1.73%
inhibition at 1 µM [6]: 12%
inhibition at 1 µM [7]: 0.0799%
inhibition at 1 µM [8]: -2.32%
inhibition at 1 µM [9]: 13%
inhibition at 1 µM [10]: 56%
inhibition at 1 µM [11]: 59%
inhibition at 1 µM [12]: 4%
inhibition at 1 µM [13]: -1%

CN1CCN(c2ccc(C(=O)Nc3n[nH]c4ccc(Cc5cc(F)cc(F)c5)cc34)c(NC3CCOCC3)c2)CC1 [entrectinib]
pIC50 [1]: 5.11
inhibition at 1 µM [2]: 96%
inhibition at 1 µM [3]: 8%
inhibition at 1 µM [4]: 6.5%
inhibition at 1 µM [5]: -7%
inhibition at 1 µM [6]: -10%
inhibition at 1 µM [7]: -2.18%
inhibition at 1 µM [8]: 53%
inhibition at 1 µM [9]: 19%
inhibition at 1 µM [10]: 7.47%
inhibition at 1 µM [11]: 14%
inhibition at 1 µM [12]: 85%
inhibition at 1 µM [13]: 1.84%

CCc1nc(C(N)=O)c(Nc2ccc(N3CCC(N4CCN(C)CC4)CC3)c(OC)c2)nc1NC1CCOCC1 [gilteritinib]
pIC50 [1]: 6.63
inhibition at 1 µM [2]: 84%
inhibition at 1 µM [3]: 84%
inhibition at 1 µM [4]: 63%
inhibition at 1 µM [5]: 47%
inhibition at 1 µM [6]: 4%
inhibition at 1 µM [7]: -3%
inhibition at 1 µM [8]: 52%
inhibition at 1 µM [9]: 13%
inhibition at 1 µM [10]: 6%
inhibition at 1 µM [11]: 99%
inhibition at 1 µM [12]: 99%
inhibition at 1 µM [13]: 15%

CCN1CCN(c2ccc(Nc3cc(N(C)C(=O)Nc4c(Cl)c(OC)cc(OC)c4Cl)ncn3)cc2)CC1 [infigratinib]
pIC50 [1]: < 5.50
inhibition at 1 µM [2]: 40%
inhibition at 1 µM [3]: -0.912%
inhibition at 1 µM [4]: 26%
inhibition at 1 µM [5]: -0.837%
inhibition at 1 µM [6]: 5%
inhibition at 1 µM [7]: -4.6%
inhibition at 1 µM [8]: -8%
inhibition at 1 µM [9]: 2%
inhibition at 1 µM [10]: -1.57%
inhibition at 1 µM [11]: 6%
inhibition at 1 µM [12]: 23%
inhibition at 1 µM [13]: -4%

O=C(Nc1cnn2ccc(N3CCC[C@@H]3c3cc(F)ccc3F)nc12)N1CC[C@H](O)C1 [larotrectinib]
pIC50 [1]: < 4.50
inhibition at 1 µM [2]: 1.82%
inhibition at 1 µM [3]: -0.39%
inhibition at 1 µM [4]: -6.33%
inhibition at 1 µM [5]: -2.21%
inhibition at 1 µM [6]: -3.56%
inhibition at 1 µM [7]: -4.49%
inhibition at 1 µM [8]: -0.0881%
inhibition at 1 µM [9]: 1.58%
inhibition at 1 µM [10]: -0.0712%
inhibition at 1 µM [11]: 6%
inhibition at 1 µM [12]: -2%
inhibition at 1 µM [13]: -2.37%

FC(F)(F)c1ccc(CNc2ccc(Cc3c[nH]c4ncc(Cl)cc34)cn2)cn1 [pexidartinib]
pIC50 [1]: < 4.50
inhibition at 1 µM [2]: -9%
inhibition at 1 µM [3]: 4.6%
inhibition at 1 µM [4]: 11%
inhibition at 1 µM [5]: 2.43%
inhibition at 1 µM [6]: 2%
inhibition at 1 µM [7]: -1.24%
inhibition at 1 µM [8]: 4%
inhibition at 1 µM [9]: 0.77%
inhibition at 1 µM [10]: 0.844%
inhibition at 1 µM [11]: 52%
inhibition at 1 µM [12]: 31%
inhibition at 1 µM [13]: 0.256%

CO[C@]1(C(=O)N[C@@H](C)c2ccc(-n3cc(F)cn3)nc2)CC[C@H](c2nc(C)cc(Nc3cc(C)[nH]n3)n2)CC1 [pralsetinib]
pIC50 [1]: 5.58
inhibition at 1 µM [2]: 82%
inhibition at 1 µM [3]: 11%
inhibition at 1 µM [4]: -2.55%
inhibition at 1 µM [5]: 1.9%
inhibition at 1 µM [6]: 9%
inhibition at 1 µM [7]: -2.67%
inhibition at 1 µM [8]: 74%
inhibition at 1 µM [9]: -3.21%
inhibition at 1 µM [10]: -3.42%
inhibition at 1 µM [11]: 44%
inhibition at 1 µM [12]: 3.5%
inhibition at 1 µM [13]: -2.52%

COc1ccc(CN2C3CC2CN(c2ccc(-c4cc(OCC(C)(C)O)cn5ncc(C#N)c45)cn2)C3)cn1 [selpercatinib]
pIC50 [1]: 5.41
inhibition at 1 µM [2]: 24%
inhibition at 1 µM [3]: 0.223%
inhibition at 1 µM [4]: -2.53%
inhibition at 1 µM [5]: -3.65%
inhibition at 1 µM [6]: -5.31%
inhibition at 1 µM [7]: -10%
inhibition at 1 µM [8]: 69%
inhibition at 1 µM [9]: 4.42%
inhibition at 1 µM [10]: -1.85%
inhibition at 1 µM [11]: 21%
inhibition at 1 µM [12]: 4.23%
inhibition at 1 µM [13]: -1.82%

Cn1cnc2c(F)c(Nc3ccc(Br)cc3Cl)c(C(=O)NOCCO)cc21 [selumetinib]
pIC50 [1]: 7.00
inhibition at 1 µM [2]: -3.52%
inhibition at 1 µM [3]: 2.71%
inhibition at 1 µM [4]: -4%
inhibition at 1 µM [5]: 0.656%
inhibition at 1 µM [6]: 7%
inhibition at 1 µM [7]: -2.62%
inhibition at 1 µM [8]: -12%
inhibition at 1 µM [9]: -3.21%
inhibition at 1 µM [10]: -1.71%
inhibition at 1 µM [11]: 10%
inhibition at 1 µM [12]: 2.67%
inhibition at 1 µM [13]: -5%

Cc1cc(Nc2ncnc3ccc(NC4=NC(C)(C)CO4)cc23)ccc1Oc1ccn2ncnc2c1 [tucatinib]
pIC50 [1]: 5.16
inhibition at 1 µM [2]: 2.29%
inhibition at 1 µM [3]: 6%
inhibition at 1 µM [4]: -2.58%
inhibition at 1 µM [5]: 2%
inhibition at 1 µM [6]: -1.11%
inhibition at 1 µM [7]: -4%
inhibition at 1 µM [8]: -13%
inhibition at 1 µM [9]: -5.44%
inhibition at 1 µM [10]: -3.42%
inhibition at 1 µM [11]: 21%
inhibition at 1 µM [12]: 6%
inhibition at 1 µM [13]: -4%
